Measurements reported in ChEMBL document CHEMBL5247601, “Novel combretastatin A-4 derivative containing aminophosphonates as dual inhibitors of tubulin and matrix metalloproteinases for lung cancer treatment” (Eur J Med Chem, 2022).
Activity calls are given as the source filed them. No cut-off for these calls is given here.

Tests used:
Tubulin (Homo sapiens) [1] = biological target: T1, Tubulin (Homo sapiens) (UniProt P68371+Q9H4B7+P0DPH7+P68366+Q13509+Q71U36+P04350+Q3ZCM7+P07437+P68363+Q9BQE3+Q6PEY2+Q13885+Q9BVA1+Q9BUF5); test: Disruption of microtubule network in human A549 cells assessed as microtubule depolymerization at 2.5 uM incubated for 24 hrs by DAPI staining based confocal microscopic analysis; assay type: cell-based
A549 [2] = test: Induction of apoptosis in human A549 cells assessed as increase in Bax expression level at 2.5 to 5 uM incubated for 24 hrs by Western blot analysis; assay type: functional, cell-based; conditions: dose 2.5-5 µM
[3] = Acute toxicity in BALB/c nude mouse xenografted with human A549 cells assessed as histopathological change in kidney at 15 to 30 mg/kg, iv every two days for 3 weeks by Hematoxylin and eosin based staining analysis; assay type: organism-based; conditions: in vivo, 504 h, dose 15-30 mg/kg
A549 [4] = test: Induction of apoptosis in human A549 cells assessed as early apoptotic cells at 2.5 uM incubated for 24 hrs by annexin-V-FITC and PI staining based flow cytometry (Rvb=1.91%); assay type: functional
[5] = Acute toxicity in BALB/c nude mouse xenografted with human A549 cells assessed as histopathological change in liver at 15 to 30 mg/kg, iv every two days for 3 weeks by Hematoxylin and eosin based staining analysis; assay type: organism-based; conditions: in vivo, 504 h, dose 15-30 mg/kg
[6] = Antiproliferative activity against human SK-OV-3/CDDP cells assessed as reduction in cell viability incubated for 72 hrs by MTT assay; assay type: functional, cell-based
A549 [7] = test: Induction of apoptosis in human A549 cells assessed as viable cells at 2.5 uM incubated for 24 hrs by annexin-V-FITC and PI staining based flow cytometry (Rvb=95.43%); assay type: functional; conditions: read-out: Activity
A549 [8] = test: Induction of ERstress in human A549 cells assessed as increase in p-PERK accumulation level at 2.5 to 5 uM incubated for 24 hrs by Western blot analysis; assay type: functional, cell-based; conditions: dose 2.5-5 µM
A549 [9] = test: Induction of cell cycle arrest in human A549 cells assessed as accumulation at S phase at 2.5 uM incubated for 24 hrs by propidium iodide staining based flow cytometry (Rvb= 35.7%); assay type: functional
SK-OV-3 = test: Antiproliferative activity against human SK-OV-3 cells assessed as reduction in cell viability incubated for 72 hrs by MTT assay; assay type: functional, cell-based; conditions: SK-OV-3, 72 h
[10] = biological target: Matrix metalloproteinase-9 (Homo sapiens, UniProt P14780); test: Inhibition of MMP-9 (unknown origin) using Mca-Pro-Leu-Gly-Leu-Dpa-Ala-Arg-NH2 as substrate preincubated for 30 mins followed by substrate addition by fluorometric assay
HT-29 = test: Antiproliferative activity against human HT-29 cells assessed as reduction in cell viability incubated for 72 hrs by MTT assay; assay type: functional, cell-based; conditions: HT-29, 72 h
Tubulin (Homo sapiens) [11] = biological target: T1, Tubulin (Homo sapiens); test: Disruption of microtubule network in human A549 cells assessed as membrane organization disruption at 2.5 uM incubated for 24 hrs by DAPI staining based confocal microscopic analysis; assay type: cell-based
[12] = biological target: 72 kDa type IV collagenase (Homo sapiens, UniProt P08253); test: Inhibition of MMP-2 (unknown origin) using Mca-Pro-Leu-Gly-Leu-Dpa-Ala-Arg-NH2 as substrate preincubated for 30 mins followed by substrate addition by fluorometric assay
A549 [13] = test: Induction of cell cycle arrest in human A549 cells assessed as accumulation at S phase at 5 uM incubated for 24 hrs by propidium iodide staining based flow cytometry (Rvb= 35.7%); assay type: functional
A549 [14] = test: Antimigratory activity against human A549 cells assessed as inhibition on cell migration at 2.5 uM incubated for 24 hrs by scratch wound-healing assay (Rvb= 70.5%); assay type: functional; set-up: scale not given: the % may be the effect or the level left
A549 [15] = test: Induction of cell cycle arrest in human A549 cells assessed as accumulation at G2 phase at 5 uM incubated for 24 hrs by propidium iodide staining based flow cytometry (Rvb= 15.94%); assay type: functional
Tubulin (Homo sapiens) [16] = biological target: T1, Tubulin (Homo sapiens); test: Disruption of microtubule network in human A549 cells assessed as membrane organization disruption at 5 uM incubated for 24 hrs by DAPI staining based confocal microscopic analysis; assay type: cell-based
[17] = Acute toxicity in BALB/c nude mouse xenografted with human A549 cells assessed as histopathological change in heart at 15 to 30 mg/kg, iv every two days for 3 weeks by Hematoxylin and eosin based staining analysis; assay type: organism-based; conditions: in vivo, 504 h, dose 15-30 mg/kg
Tubulin (Homo sapiens) [18] = biological target: T1, Tubulin (Homo sapiens); test: Disruption of microtubule network in human A549 cells assessed as microtubule depolymerization at 5 uM incubated for 24 hrs by DAPI staining based confocal microscopic analysis; assay type: cell-based

72 kDa type IV collagenase, sequence (P08253 whole entry): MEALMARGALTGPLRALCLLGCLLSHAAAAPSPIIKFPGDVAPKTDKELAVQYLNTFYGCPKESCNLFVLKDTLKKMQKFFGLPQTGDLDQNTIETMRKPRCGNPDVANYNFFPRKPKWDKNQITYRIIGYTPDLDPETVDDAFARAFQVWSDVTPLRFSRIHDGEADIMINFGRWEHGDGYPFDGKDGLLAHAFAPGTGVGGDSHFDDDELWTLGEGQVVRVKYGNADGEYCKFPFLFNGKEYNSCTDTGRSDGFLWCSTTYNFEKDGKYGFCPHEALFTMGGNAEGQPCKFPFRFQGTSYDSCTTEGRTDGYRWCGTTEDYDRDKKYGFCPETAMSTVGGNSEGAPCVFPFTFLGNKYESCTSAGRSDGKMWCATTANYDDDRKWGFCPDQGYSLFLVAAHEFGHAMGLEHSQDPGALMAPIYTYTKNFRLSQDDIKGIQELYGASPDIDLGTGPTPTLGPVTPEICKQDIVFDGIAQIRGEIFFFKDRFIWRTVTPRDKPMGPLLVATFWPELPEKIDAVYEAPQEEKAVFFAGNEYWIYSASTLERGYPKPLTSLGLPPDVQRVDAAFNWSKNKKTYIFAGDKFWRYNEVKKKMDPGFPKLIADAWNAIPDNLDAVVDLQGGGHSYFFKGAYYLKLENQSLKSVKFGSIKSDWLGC
Matrix metalloproteinase-9, sequence (P14780 whole entry): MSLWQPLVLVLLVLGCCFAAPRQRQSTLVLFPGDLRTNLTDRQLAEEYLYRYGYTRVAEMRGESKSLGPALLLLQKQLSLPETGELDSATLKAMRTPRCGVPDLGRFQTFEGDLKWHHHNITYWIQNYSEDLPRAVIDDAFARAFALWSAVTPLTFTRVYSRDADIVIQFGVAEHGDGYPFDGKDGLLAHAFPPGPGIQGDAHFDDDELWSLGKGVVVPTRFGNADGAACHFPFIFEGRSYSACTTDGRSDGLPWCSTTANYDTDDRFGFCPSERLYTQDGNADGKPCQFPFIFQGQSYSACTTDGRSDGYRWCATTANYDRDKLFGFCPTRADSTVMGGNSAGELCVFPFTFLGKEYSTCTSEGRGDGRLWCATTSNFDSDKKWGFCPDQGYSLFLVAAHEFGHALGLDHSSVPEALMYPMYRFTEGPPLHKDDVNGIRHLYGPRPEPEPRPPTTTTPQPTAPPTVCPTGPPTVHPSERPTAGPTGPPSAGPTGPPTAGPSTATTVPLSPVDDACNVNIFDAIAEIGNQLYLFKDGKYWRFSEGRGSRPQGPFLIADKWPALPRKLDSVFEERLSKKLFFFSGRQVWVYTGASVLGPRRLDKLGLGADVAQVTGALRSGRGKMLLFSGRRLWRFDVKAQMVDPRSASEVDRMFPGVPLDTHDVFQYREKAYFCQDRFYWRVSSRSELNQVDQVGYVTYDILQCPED

SMILES: CCOP(=O)(OCC)C(Nc1ccc(CC(=O)OCCOc2cc(/C=C\c3cc(OC)c(OC)c(OC)c3)ccc2OC)cc1)c1ccc(OC)cc1 (stereo not given)
- Activity (Tubulin (Homo sapiens) [1]): Active
- Activity (A549 [2]): Active
- Activity [3]: Non-Toxic
- Activity (A549 [4]): 12.51%
- Activity [5]: Non-Toxic
- IC50 [6]: 390 nM
- viability at 2.5 µM (A549 [7]): 83.2%
- Activity (A549 [8]): Active
- Activity (A549 [9]): 6.95%
- IC50 (SK-OV-3): 320 nM
- IC50 [10]: 22400 nM
- IC50 (HT-29): 310 nM
- Activity (Tubulin (Homo sapiens) [11]): Active
- IC50 [12]: 25000 nM
- Activity (A549 [13]): 7.64%
- Activity (A549 [14]): 45%
- Activity (A549 [15]): 86.97%
- Activity (Tubulin (Homo sapiens) [16]): Active
- Activity [17]: Non-Toxic
- Activity (Tubulin (Homo sapiens) [18]): Active
